Values of other authors, collected in patent US20040248214A1, “Novel method of assaying immune activity” (priority 2001, published 2004).

Tests used:
NKT cells = details: cancer-bearing mouse

CCCCCCCCCCCCCCCCCCCCCCCCCC(=O)N[C@@H](CO[C@H]1O[C@H](CO)[C@H](O)[C@H](O)[C@H]1O)[C@H](O)[C@H](O)CCCCCCCCCCCCCC [α-galactosylceramide]
activation of NKT cells (NKT cells): NKT cells were activated
disappearance of cancer (NKT cells): disappearance of cancer was not noted
metastasis (NKT cells): metastasis was suppressed

IL-12: interleukin 12
side effect (IL-12 per se directly administered into living body): results in a side effect
anti-cancer effect (in vivo): has an anti-cancer effect
